Experimental data from ChEMBL document CHEMBL1201862, “PubChem BioAssay data set” (2004).
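Cells were grown in 96-well plates and exposed to each compound for 48 hours at five concentrations; endpoints were interpolated linearly between bracketing concentrations, or set to the highest concentration if not reached. GI50 marks 50% less growth.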 Activity calls are given as the source filed them. Cut-off read from the data, not from the text of the source: active = GI50 up to about 1.1 µM and inactive = higher.

Columns and labels:
Test in all cases: DTP human tumour cell line panel, 48 h
CCRF-CEM = system: CCRF-CEM
IGROV-1 = system: IGROV-1
K562 = system: K562
MDA-MB-435 = system: MDA-MB-435
NCI-H226 = system: NCI-H226
NCI-H522 = system: NCI-H522
PC-3 = system: PC-3
RXF 393 = system: RXF 393
SF-268 = system: SF-268
SF-295 = system: SF-295
SF-539 = system: SF-539
SK-MEL-28 = system: SK-MEL-28
SK-OV-3 = system: SK-OV-3
SNB-19 = system: SNB-19
SNB-75 = system: SNB-75
SR = system: SR
SW-620 = system: SW-620
TK-10 = system: TK-10
OVCAR-3 = system: OVCAR-3
OVCAR-4 = system: OVCAR-4

Row | Structure (SMILES) | GI50 (CCRF-CEM) | GI50 (IGROV-1) | GI50 (K562) | GI50 (MDA-MB-435) | GI50 (NCI-H226) | GI50 (NCI-H522) | GI50 (PC-3) | GI50 (RXF 393) | GI50 (SF-268) | GI50 (SF-295) | GI50 (SF-539) | GI50 (SK-MEL-28) | GI50 (SK-OV-3) | GI50 (SNB-19) | GI50 (SNB-75) | GI50 (SR) | GI50 (SW-620) | GI50 (TK-10) | GI50 (OVCAR-3) | GI50 (OVCAR-4)
1 | Nc1ncnc2c1ncn2C1OC(COP(=O)(O)CP(=O)(O)O)C(O)C1O (stereo not drawn) | > 100 µM (inactive) | > 100 µM (inactive) | > 100 µM (inactive) | > 100 µM (inactive) | > 100 µM (inactive) | > 100 µM (inactive) | > 100 µM (inactive) | > 100 µM (inactive) | > 100 µM (inactive) | > 100 µM (inactive) | > 100 µM (inactive) | > 100 µM (inactive) | > 100 µM (inactive) | > 100 µM (inactive) | > 100 µM (inactive) | > 100 µM (inactive) | > 100 µM (inactive) | > 100 µM (inactive) |  | 
2 | O=C1CC(c2ccccc2)NCCCCN2CC(CN1)C(C(O)c1ccccc1)C2=O (stereo not drawn) | > 100 µM (inactive) | > 100 µM (inactive) |  | > 100 µM (inactive) | > 100 µM (inactive) | > 100 µM (inactive) | > 100 µM (inactive) | > 100 µM (inactive) | > 100 µM (inactive) | > 100 µM (inactive) | > 100 µM (inactive) | > 100 µM (inactive) | > 100 µM (inactive) | > 100 µM (inactive) | 95.5 µM (inactive) | > 100 µM (inactive) | > 100 µM (inactive) | > 100 µM (inactive) | > 100 µM (inactive) | > 100 µM (inactive)
3 | CCC(C)N1CN(c2ccccc2)C2(CCN(CC3COc4ccccc4O3)CC2)C1=O (stereo not drawn) | 19.9 µM (inactive) | 42.2 µM (inactive) | 16.5 µM (inactive) | 19.2 µM (inactive) | 21 µM (inactive) | 22.8 µM (inactive) | 26.6 µM (inactive) | 20.9 µM (inactive) | 48 µM (inactive) | 19 µM (inactive) | 17.8 µM (inactive) | 39.7 µM (inactive) | 33.6 µM (inactive) | 23.7 µM (inactive) | 36.9 µM (inactive) | 17.9 µM (inactive) | 22.3 µM (inactive) | 27.5 µM (inactive) | 15.7 µM (inactive) | 
4 | O=C(O)c1cc(Cl)cc(Cc2cc(Cl)cc(C(=O)O)c2O)c1O | > 100 µM (inactive) | > 100 µM (inactive) | > 100 µM (inactive) | > 100 µM (inactive) |  | > 100 µM (inactive) | > 100 µM (inactive) | > 100 µM (inactive) | > 100 µM (inactive) | > 100 µM (inactive) | > 100 µM (inactive) | > 100 µM (inactive) | > 100 µM (inactive) | > 100 µM (inactive) | > 100 µM (inactive) | > 100 µM (inactive) | > 100 µM (inactive) | > 100 µM (inactive) | > 100 µM (inactive) | > 100 µM (inactive)
5 | O=C1/C(=C/C=C/c2ccccc2)N=C(c2ccccc2)N1c1ccc(S(=O)(=O)Nc2nccs2)cc1 | 32.4 µM (inactive) | 20.2 µM (inactive) | 40.2 µM (inactive) | 28.2 µM (inactive) | 20 µM (inactive) | 14.3 µM (inactive) | 36.4 µM (inactive) | 13.2 µM (inactive) | 14 µM (inactive) | 33.5 µM (inactive) | 20.8 µM (inactive) |  | 28.1 µM (inactive) | 37.2 µM (inactive) | 45.1 µM (inactive) | 30.9 µM (inactive) | 35.1 µM (inactive) | 30.8 µM (inactive) | 21.1 µM (inactive) | 30 µM (inactive)
6 | CC(=O)Nc1ccc2c(C)c3c(nc2n1)[nH]c1ccccc13 | 30.6 µM (inactive) | 22.2 µM (inactive) | 35.5 µM (inactive) | 29.6 µM (inactive) | 23.4 µM (inactive) | 20 µM (inactive) | 27.2 µM (inactive) | 33.6 µM (inactive) | 33 µM (inactive) | 34.3 µM (inactive) | 57.3 µM (inactive) |  |  |  | 22.1 µM (inactive) | 17.6 µM (inactive) | 37.1 µM (inactive) | 55.5 µM (inactive) | 23.9 µM (inactive) | 38.7 µM (inactive)
7 | Cc1cc2c(cc1Cl)Sc1nnc(Nc3ccccc3)n1S2(=O)=O |  | 10 µM (inactive) | 8.69 µM (inactive) | 5.01 µM (inactive) | 3.08 µM (inactive) | 2.93 µM (inactive) | 5.7 µM (inactive) | 5.26 µM (inactive) | 2.32 µM (inactive) | 13.3 µM (inactive) | 2.39 µM (inactive) | 15.8 µM (inactive) |  |  | 5.47 µM (inactive) | 2.59 µM (inactive) | 7.87 µM (inactive) | 17.8 µM (inactive) | 2.2 µM (inactive) | 6.89 µM (inactive)
8 | c1csc(-c2ccc(-c3ccsc3)s2)c1 | > 100 µM (inactive) | > 100 µM (inactive) | > 100 µM (inactive) | > 100 µM (inactive) | > 75.5 µM (inactive) | > 100 µM (inactive) | 97.5 µM (inactive) | > 87.9 µM (inactive) | > 100 µM (inactive) | > 100 µM (inactive) | 68.5 µM (inactive) | > 100 µM (inactive) | > 100 µM (inactive) | > 100 µM (inactive) | 57.4 µM (inactive) | > 100 µM (inactive) | > 100 µM (inactive) | > 100 µM (inactive) |  | > 100 µM (inactive)
9 | C=C(C)[C@@H]1C[C@H]2O[C@](O)(C(=C)CC(=O)/C=C(/C)C[C@@H]3OC(=O)[C@]24O[C@@H]34)[C@H]1O | > 100 µM (inactive) | > 100 µM (inactive) | > 100 µM (inactive) | > 100 µM (inactive) | > 100 µM (inactive) | > 100 µM (inactive) | > 100 µM (inactive) | > 100 µM (inactive) | > 100 µM (inactive) | > 100 µM (inactive) | > 100 µM (inactive) | > 100 µM (inactive) | > 100 µM (inactive) | > 100 µM (inactive) | > 100 µM (inactive) | > 100 µM (inactive) | > 100 µM (inactive) | > 100 µM (inactive) |  | > 100 µM (inactive)
10 | FC1C2=C(SC1(F)F)C1CCC2C1 (stereo not drawn) |  | > 100 µM (inactive) | > 100 µM (inactive) | > 100 µM (inactive) | > 100 µM (inactive) | > 100 µM (inactive) | > 100 µM (inactive) | > 100 µM (inactive) |  | > 100 µM (inactive) |  |  | > 100 µM (inactive) | > 100 µM (inactive) | > 100 µM (inactive) | > 100 µM (inactive) | > 100 µM (inactive) | > 100 µM (inactive) | > 100 µM (inactive) | > 100 µM (inactive)
11 | O=C1CCC2C(O)c3cc4c(cc3C(c3ccc5c(c3)OCO5)N12)OCO4 (stereo not drawn) | > 100 µM (inactive) | > 100 µM (inactive) | > 100 µM (inactive) | > 100 µM (inactive) | 67.9 µM (inactive) | 89.5 µM (inactive) | > 100 µM (inactive) |  | 19.2 µM (inactive) | 49.2 µM (inactive) | 80 µM (inactive) | > 100 µM (inactive) | 40 µM (inactive) | 29.2 µM (inactive) | 16.3 µM (inactive) | > 100 µM (inactive) | > 100 µM (inactive) | > 100 µM (inactive) | > 100 µM (inactive) | > 100 µM (inactive)
12 | O=c1[nH]cnc2c1ncn2[C@@H]1C[C@@H]1CO | > 100 µM (inactive) | > 100 µM (inactive) | > 100 µM (inactive) | > 100 µM (inactive) | > 100 µM (inactive) | > 100 µM (inactive) | > 100 µM (inactive) | > 100 µM (inactive) | > 100 µM (inactive) |  | > 100 µM (inactive) | > 100 µM (inactive) |  | > 100 µM (inactive) | > 100 µM (inactive) | > 100 µM (inactive) | > 100 µM (inactive) | > 100 µM (inactive) |  | > 100 µM (inactive)
13 | COc1ccc(/C=N/NC(=S)Nc2cc(C)ccc2OC)cc1 | 22.3 µM (inactive) | 33.5 µM (inactive) | 0.63 µM (active) | 25.6 µM (inactive) |  | 19.3 µM (inactive) | 34.4 µM (inactive) | 33.7 µM (inactive) | 48.9 µM (inactive) | 37.4 µM (inactive) | 24.5 µM (inactive) | 34.8 µM (inactive) | 51.8 µM (inactive) | 46.1 µM (inactive) | > 100 µM (inactive) | 9.08 µM (inactive) | 34.7 µM (inactive) |  | 40.2 µM (inactive) | 23.8 µM (inactive)
14 | CC(C)C[C@H](NC(=O)CCc1ccccc1)B(O)O | 2.33 µM (inactive) | 23.2 µM (inactive) | 17.6 µM (inactive) | 2.67 µM (inactive) | 1.62 µM (inactive) | 11.7 µM (inactive) | 37.2 µM (inactive) | 5.66 µM (inactive) | 10.1 µM (inactive) | 12 µM (inactive) | 4.54 µM (inactive) | 11 µM (inactive) |  | 15.4 µM (inactive) |  | 2.72 µM (inactive) | 4.83 µM (inactive) | 8.97 µM (inactive) | 3.63 µM (inactive) | 36.5 µM (inactive)
15 | COC(=O)/C=C\C(C#N)(C#N)/N=C/c1ccsc1 | 0.216 µM (active) | 9.08 µM (inactive) | 0.525 µM (active) | 5.4 µM (inactive) | 20.4 µM (inactive) | 0.662 µM (active) | 11.6 µM (inactive) | 1.78 µM (inactive) | 15.2 µM (inactive) | 13.3 µM (inactive) |  | 2.83 µM (inactive) | 17.2 µM (inactive) | 14.5 µM (inactive) | 15.7 µM (inactive) | 0.214 µM (active) | 1.28 µM (inactive) | 2.36 µM (inactive) | 1.86 µM (inactive) | 18.5 µM (inactive)
